Target: T1, Tankyrase 1 (TNKS1) (Homo sapiens, UniProt O95271)
T1 construct: gene TNKS
Test: fluorescence-based homogeneous NAD+ consumption activity assay
Format: biochemical

T1 sequence (O95271 whole entry): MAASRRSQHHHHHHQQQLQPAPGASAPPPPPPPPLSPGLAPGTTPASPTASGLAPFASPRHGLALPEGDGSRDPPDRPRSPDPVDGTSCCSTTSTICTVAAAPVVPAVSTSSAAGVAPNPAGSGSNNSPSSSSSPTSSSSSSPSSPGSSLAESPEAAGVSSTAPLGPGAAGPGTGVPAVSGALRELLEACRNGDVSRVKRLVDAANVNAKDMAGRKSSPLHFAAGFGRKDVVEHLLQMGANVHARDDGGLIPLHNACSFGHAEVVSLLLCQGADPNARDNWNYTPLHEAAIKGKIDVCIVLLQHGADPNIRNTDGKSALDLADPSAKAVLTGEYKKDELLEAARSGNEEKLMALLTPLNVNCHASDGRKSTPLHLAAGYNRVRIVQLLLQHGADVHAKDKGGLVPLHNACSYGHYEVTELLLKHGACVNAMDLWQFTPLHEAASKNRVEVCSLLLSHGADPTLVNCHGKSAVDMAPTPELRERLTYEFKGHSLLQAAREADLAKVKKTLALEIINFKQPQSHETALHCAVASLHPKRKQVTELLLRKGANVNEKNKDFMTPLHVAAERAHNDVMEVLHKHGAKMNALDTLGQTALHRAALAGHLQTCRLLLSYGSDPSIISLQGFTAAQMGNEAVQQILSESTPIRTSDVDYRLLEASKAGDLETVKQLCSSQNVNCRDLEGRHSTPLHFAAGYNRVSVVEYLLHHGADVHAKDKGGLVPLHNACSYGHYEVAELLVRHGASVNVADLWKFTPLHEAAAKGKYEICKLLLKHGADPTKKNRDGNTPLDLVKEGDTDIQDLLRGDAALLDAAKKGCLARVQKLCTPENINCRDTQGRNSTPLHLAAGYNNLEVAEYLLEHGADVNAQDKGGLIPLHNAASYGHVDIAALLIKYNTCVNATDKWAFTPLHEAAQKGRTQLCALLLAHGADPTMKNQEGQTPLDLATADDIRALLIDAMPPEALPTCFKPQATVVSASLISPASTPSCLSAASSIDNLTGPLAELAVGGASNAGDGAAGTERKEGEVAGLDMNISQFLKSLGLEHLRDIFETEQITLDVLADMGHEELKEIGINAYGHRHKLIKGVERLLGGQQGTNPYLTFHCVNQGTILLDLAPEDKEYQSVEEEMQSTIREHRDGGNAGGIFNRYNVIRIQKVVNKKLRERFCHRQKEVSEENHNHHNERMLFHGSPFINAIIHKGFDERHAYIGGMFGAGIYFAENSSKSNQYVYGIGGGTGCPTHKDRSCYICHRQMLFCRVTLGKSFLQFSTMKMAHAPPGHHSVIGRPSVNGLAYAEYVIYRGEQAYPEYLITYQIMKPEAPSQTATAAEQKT

## COc1ccc(-n2c(SCCCN3C(=O)c4cccc5cccc(c45)C3=O)nnc2-c2ccncc2)cc1 [WIKI4]
  IC50: 26 nM

Reference: PMC3675114, “Structural Basis and Selectivity of Tankyrase Inhibition by a Wnt Signaling Inhibitor WIKI4” (PLoS ONE, 2013)
